# Measurements published in ChEMBL document CHEMBL1201862, “PubChem BioAssay data set” (2004).
#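 Cultured in 96-well plates, cells were exposed to test compound for 48 hours across five concentrations. GI50 is the concentration that inhibits growth by half.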 Active and inactive are the calls of the source. Rule as the data show it: active = GI50 up to about 1.1 µM and inactive = higher.
# Key:
# Assay in all cases: NCI anticancer screen, dose series, 48 h
# [1] = system: 786-0
# [2] = system: A498
# [3] = system: A549
# [4] = system: ACHN
# [5] = system: BT-549
# [6] = system: CAKI-1
# [7] = system: CCRF-CEM
# [8] = system: COLO 205
# [9] = system: DU-145
# [10] = system: EKVX
# [11] = system: HCC 2998
# [12] = system: HCT-116
# [13] = system: HCT-15
# [14] = system: HL-60
# [15] = system: HOP-92
# [16] = system: HT-29
# [17] = system: Hs-578T
# [18] = system: IGROV-1
# [19] = system: K562
# [20] = system: KM12
# [21] = system: LOX IMVI
# [22] = system: M14
# [23] = system: MCF7
# [24] = system: MDA-MB-231
# [25] = system: MDA-MB-435
# [26] = system: MDA-N
# [27] = system: MOLT-4
# [28] = system: Malme-3M
# [29] = system: NCI-H226
# [30] = system: NCI-H23
# [31] = system: NCI-H460
# [32] = system: NCI-H522
# [33] = system: NCI/ADR-RES
# [34] = system: OVCAR-3
# [35] = system: OVCAR-4
# [36] = system: OVCAR-5
# [37] = system: OVCAR-8
# [38] = system: PC-3
# [39] = system: RPMI-8226
# [40] = system: RXF 393
# [41] = system: SF-295
# [42] = system: SF-539
# [43] = system: SK-MEL-28
# [44] = system: SK-MEL-2
# [45] = system: SK-MEL-5
# [46] = system: SK-OV-3
# [47] = system: SNB-19
# [48] = system: SNB-75
# [49] = system: SR
# [50] = system: SW-620
# [51] = system: T47D
# [52] = system: TK-10
# [53] = system: U-251
# [54] = system: UACC-257
# [55] = system: UACC-62
# [56] = system: UO-31
smiles,measurement,setting,value
CC(=O)Nc1cc2c3c(c1)CCCN3CCC2,GI50,[1],> 100 µM (inactive)
same,GI50,[2],> 100 µM (inactive)
same,GI50,[3],> 100 µM (inactive)
same,GI50,[4],> 100 µM (inactive)
same,GI50,[5],> 100 µM (inactive)
same,GI50,[6],> 100 µM (inactive)
same,GI50,[7],> 100 µM (inactive)
same,GI50,[8],> 100 µM (inactive)
same,GI50,[9],> 100 µM (inactive)
same,GI50,[10],64.9 µM (inactive)
same,GI50,[11],> 100 µM (inactive)
same,GI50,[12],> 100 µM (inactive)
same,GI50,[13],> 100 µM
same,GI50,[14],> 100 µM (inactive)
same,GI50,[15],> 100 µM (inactive)
same,GI50,[16],> 100 µM (inactive)
same,GI50,[17],> 100 µM (inactive)
same,GI50,[18],> 100 µM (inactive)
same,GI50,[19],> 100 µM (inactive)
same,GI50,[20],> 100 µM (inactive)
same,GI50,[21],> 100 µM (inactive)
same,GI50,[22],> 100 µM (inactive)
same,GI50,[23],> 100 µM (inactive)
same,GI50,[24],> 100 µM (inactive)
same,GI50,[25],> 100 µM (inactive)
same,GI50,[26],> 100 µM (inactive)
same,GI50,[27],> 100 µM (inactive)
same,GI50,[28],> 100 µM (inactive)
same,GI50,[29],> 100 µM (inactive)
same,GI50,[30],> 100 µM (inactive)
same,GI50,[31],> 100 µM (inactive)
same,GI50,[32],> 100 µM (inactive)
same,GI50,[33],> 100 µM (inactive)
same,GI50,[34],> 100 µM (inactive)
same,GI50,[35],> 100 µM (inactive)
same,GI50,[36],> 100 µM (inactive)
same,GI50,[37],> 100 µM (inactive)
same,GI50,[38],> 100 µM (inactive)
same,GI50,[39],> 100 µM (inactive)
same,GI50,[40],> 100 µM (inactive)
same,GI50,[41],> 100 µM (inactive)
same,GI50,[42],> 100 µM (inactive)
same,GI50,[43],> 100 µM (inactive)
same,GI50,[44],> 100 µM (inactive)
same,GI50,[45],> 100 µM (inactive)
same,GI50,[46],> 100 µM (inactive)
same,GI50,[47],> 100 µM (inactive)
same,GI50,[48],65.5 µM (inactive)
same,GI50,[49],> 100 µM (inactive)
same,GI50,[50],> 100 µM (inactive)
same,GI50,[51],44.6 µM (inactive)
same,GI50,[52],> 100 µM (inactive)
same,GI50,[53],> 100 µM (inactive)
same,GI50,[54],> 100 µM (inactive)
same,GI50,[55],> 100 µM (inactive)
same,GI50,[56],> 100 µM (inactive)
